Row | melting point [°C] | Structure (SMILES)
1 | 75 to 76 | N#CCCn1ncccc1=O
2 | 77 to 78 | O=S(c1ccccc1)c1ncc(Cl)cc1F (configuration not stated)
3 | 57 to 58 | C#CCCc1cc2cc(C(=O)OC)ccc2o1
4 | 175 to 179 | C/C=C/c1cc(OC)c2oc(-c3ccc(O)c(OC)c3)c(CO)c2c1
5 | 222 to 223 | COc1ccc(Cl)c(S(=O)(=O)NC(=O)c2nc3c(Cl)cc(C(F)(F)F)cn3c2C)c1
6 | 163 | CCC1(C2CCCC2)Cc2cc(OC)c(Cl)c(Cl)c2C1=O (configuration not stated)
7 | 184 to 187 | Cc1c(Cl)cc(C2=NNC(=O)C(S)C2)cc1Cl (configuration not stated)
8 | 259 to 263 | COc1ccc(C(=O)Nc2c(Cl)cncc2Cl)c2c1OCC2CC(=O)O (configuration not stated)
9 | 93.9 to 94.6 | COC(=O)c1cc(CBr)cc(C2(C#N)CCC2)c1
10 | 142 to 144 | CN(c1cccc2cc(C3=NCC(CN4CCSCC4)S3)[nH]c12)S(=O)(=O)c1ccccn1 (configuration not stated)
11 | 168 to 171 | CCCc1nc2c(N)nc3cc(OCCCNS(C)(=O)=O)ccc3c2s1
12 | 48 to 55 | O=c1cc(O)cnn1Cc1ccccc1
13 | 216 to 218 | COc1ccc(Cc2cc3ccccc3c(=O)[nH]2)cc1
14 | 241 to 245 | Cc1ccc2c(=O)n(S(=O)(=O)c3ccc(Cl)cc3)c(=O)[nH]c2c1C
15 | 186 to 188 | O=C(O)COc1cccc2c1CCc1sc(S(=O)(=O)C(c3ccc(F)cc3)c3ccc(F)cc3)nc1-2
16 | 183 to 184 | Cc1nc(NC(=O)NS(=O)(=O)c2ccccc2C(=O)O)nc2c1CCC2
17 | 308 to 312 | CC(C)n1c(S)nc(-c2ccc(F)cc2)c1-c1ccc(F)cc1
18 | 106 | CC(C)(C)C(O)(CCCOc1ccccc1)Cn1cncn1 (configuration not stated)
19 | 48 to 49 | COc1ccc(COCCC(C)=O)cc1
20 | 170 to 173 | CC(C)n1cnc2c(NCc3ccncc3)nc(F)nc21
21 | 187 to 190 | Cn1ccnc1C1=Cc2cc(OC(C)(C)C(=O)O)ccc2OC1
22 | 115 to 117 | O=C(O)CC1CCOc2ccc(Cl)cc21 (configuration not stated)
23 | 82 to 83 | CCCCNc1c(C(=O)OCC)cnc2c1cnn2CC
24 | 160 to 162 | CCCc1ccc(S(=O)(=O)c2ccc(F)cc2)cc1S(=O)(=O)NCCc1ccncc1
25 | 191 to 193 | Cc1nc(C2CC2)nc(C)c1N1CCCn2c1nc1c(Cl)ccc(C(OC(F)F)C(F)(F)F)c12 (configuration not stated)

Row | melting point [°C] | Structure (SMILES)
26 | 188 to 190 | Nc1ccc(S(=O)(=O)Nc2cc(N)cc(N)c2)cc1
27 | 106 to 107 | O=C(O)CCc1cn(Cc2ccc(OCc3csc(-c4cccs4)n3)cc2)cc1-c1ccccc1
28 | 73 to 75 | COCCNC(=O)C(C)Oc1ccc(Oc2ccc(C(F)(F)F)cc2)cc1 (configuration not stated)
29 | 101 to 103 | COC1(OC)C(=O)N(C)c2ccc(I)cc21
30 | 49 to 50 | Fc1ccc(Oc2ncccc2COCc2ccccc2)cc1
31 | 198 to 200 | N#Cc1ccc(Oc2ncccc2C(=O)O)cc1
32 | 159 | CC(=O)OC1CSC(Sc2ccc(S(=O)(=O)c3ccccc3)cc2)C(OC(C)=O)C1OC(C)=O (configuration not stated)
33 | 165 to 167 | C#CC[C@H](c1nc2cc(Cl)ccc2c(=O)n1Nc1ccccc1)N(CCCN)C(=O)c1cc(F)cc(F)c1
34 | 56.5 | CC(C)(C)C(=O)NCc1cc(-c2ccc(Cl)c(Cl)c2)n(Cc2ccc(Cl)c(Cl)c2)n1
35 | 81 to 83 | CCCCCc1c(C(C)C)nc(C(C)C)c(CO)c1-c1ccccc1C
36 | 110 to 112 | Cc1ccc(-c2nn(C(C)(C)C(=O)N(C)C)cc2C)c(C)c1
37 | 159 to 160 | CN1CCCC(Cn2nc(-c3c(-c4ccccc4)nn4ccccc34)ccc2=O)C1 (configuration not stated)
38 | 134 to 138 | NCc1cccc(OCCC(=O)O)c1
39 | 153 to 155 | CC(=O)NC1CCN(c2cccc(Cl)n2)CC1
40 | 160 to 161 | CNC(=O)N(O)Cc1cc2ccccc2s1
41 | 148 to 150 | CC(C)OC(=O)c1cc(-n2c(=O)c3c(n(C)c2=O)CCC3)ccc1Cl
42 | 251 | COc1ccc(C(=O)C2=C(O)C(=O)N(c3nnc(C)s3)C2c2ccc(O)cc2)cc1 (configuration not stated)
43 | 99.2 | CN(C)C(=O)c1ccc(N2CCN(Cc3cnc4c(c3)NC(=O)[C@@H]3CCCN43)CC2)cc1
44 | 148 to 149 | CC1OP(=O)(O)c2ccccc21 (configuration not stated)
45 | 117 to 120 | O=C(O)Cc1csc(NC(=O)C(F)(F)F)n1
46 | 178 to 179 | COc1ccc(CN(C)CCOc2ccc(NC(=O)c3cccc4c(=O)c5cccc(OC)c5[nH]c34)c(C)c2)cc1OC
47 | 203 to 205 | COc1ccc(C(=O)C(C(=O)Nc2ccccc2Cl)N2C(=O)c3ccccc3C2=O)cc1[N+](=O)[O-] (configuration not stated)
48 | 162 to 163 | CCOC(=O)COc1cc(C(C)(C)C)c(SC2=C(O)CC(CCc3ccc(O)cc3)(CCc3ccc(O)cc3)OC2=O)cc1C
49 | 128 to 129 | O=c1c(N2CCCNCC2)nc2ccccc2n1-c1cccc(F)c1
50 | 73 to 74 | Cc1cc(OC(F)(F)C(F)Cl)nc(N)n1 (configuration not stated)

Row | melting point [°C] | Structure (SMILES)
51 | 158 to 160 | N#CC1=C(c2ccc(Cl)cc2)NC(C(F)(F)F)C1 (configuration not stated)
52 | 242 to 244 | Cc1sc(C)c2c(=O)n3cc(C#N)ccc3nc12
53 | 197 | CC(C(=O)N1c2ccccc2N(C)C(=O)c2cnc(-c3ccccc3)nc21)N1CCNCC1 (configuration not stated)
54 | 154 to 158 | CC(C)(C)n1nc2nc3n(c(=O)c2c1N)CCS3
55 | 222 | O=C1NCc2cc(C(c3ccccc3)n3ccnc3)ccc2N1 (configuration not stated)
56 | 190 to 193 | CC(=O)Nc1ccc(S(=O)(=O)Nn2cc(-c3ccccc3)c3ccccc32)cc1
57 | > 240 | Cc1c(N(C)C)n2c(cc1=O)CCCC2
58 | 95 to 97 | CC1(C)CC(=O)C1(Cl)CC(Br)(Br)Br (configuration not stated)
59 | 57 to 59 | COC(=O)C(=O)c1ccc(OCC#Cc2ccccc2)cc1
60 | 125 | CCC(C(=O)c1ccc(Cl)cc1)n1ncn(-c2ccc(N3CCN(C(C)=O)CC3)cc2)c1=O (configuration not stated)
61 | 167 to 168 | Cc1cccc(C(=O)Nc2c(C(O)(C(F)(F)F)C(F)(F)F)ccc3ccccc23)c1
62 | 102 to 105 | CCC(C)Nc1cc(N2CCc3cc(OC)cc(Cl)c32)nc(C)n1 (configuration not stated)
63 | 66 to 69 | CS(=O)(=O)Nc1ccc(CCCOCCCCCCNCC(O)c2cc(O)cc(O)c2)cc1 (configuration not stated)
64 | > 300 | Oc1nc2ccc3c(c2nc1O)CCCC3
65 | 110 | C=C(C)CC(O)(C(Nc1ccc(F)c2nc(C)ncc12)c1ccc(Cl)cc1OC)C(F)(F)F (configuration not stated)
66 | 142 to 155 | CC(=O)NCCNCc1ccc(-c2cc3ncnc(Nc4ccc5[nH]ccc5c4)c3s2)cc1
67 | 89 to 90 | CC1(C)CCCC(C)(C)N1c1nc(Cl)cc(Cl)n1
68 | 208 to 209 | Oc1ccc2c(c1)CCC2n1cc[nH]c1=S (configuration not stated)
69 | 89 to 92 | O=C1OC(O)(c2ccccc2)C2(Cl)CCCCC12 (configuration not stated)
70 | 176 to 177 | OC(c1ccc(F)cc1)(c1ccc(F)cc1)c1nccn1Cc1ccccc1
71 | 118 to 125 | C[C@@H](S[C@H]1CO[C@H](/C=C/c2cccnc2)OC1)[C@](O)(Cn1cncn1)c1ccc(F)cc1F
72 | 98 to 99 | C=CCCCCCCCCNC(=O)N[C@H]1CCCNC(=O)C1
73 | 125 to 127 | c1ccc2c(c1)CCN(CCSc1ccnc(CSc3nc4ccccc4[nH]3)c1)C2
74 | 98 | CCCCC[C@H]1CC[C@H](c2ncc([C@H]3CC[C@H](CCC)CC3)cn2)CC1
75 | 79 | CCC1(c2ccnc(OC)c2CO)OCCCO1

Row | melting point [°C] | Structure (SMILES)
76 | 207 to 208 | N#Cc1ccc(NCCc2nc3cc(Cl)ccc3c3nn(-c4ccccc4)cc23)nc1
77 | 84 to 85 | Cc1cc(Oc2cccc(C(F)(F)F)c2)nn1C(=O)Nc1ccc(F)cc1F
78 | 138 to 140 | COC(=O)C[C@@H]1C[C@@H](COc2ccc(-c3ccc(C#N)cc3)cc2)NC1=O
79 | 214 to 215 | O=C1c2ccccc2S(=O)(=O)N1C1CCN(Cc2c[nH]c3ccccc23)CC1
80 | 190 to 192 | CCN(CC)Cc1ccc2cc(COc3cccc4c3CN(C3CCC(=O)NC3=O)C4=O)sc2c1 (configuration not stated)
81 | 120 to 125 | [O-][N+]1=C(c2ccccc2)c2cc(Cl)ccc2CCC1
82 | 118 to 120 | COc1cc(Cl)nc(N(C=O)c2ccccc2)n1
83 | 73 to 74 | CCCc1nn(-c2ccc(C(F)(F)F)cn2)cc1CCC(=O)OCC
84 | 101 to 104 | COC(=O)N1C[C@@H](C#N)[C@H](c2ccc(OC)c(OC3CCCC3)c2)C1 (relative stereo)
85 | 161 | CSc1ccc(C=CC(=O)c2ccc(Br)cc2)cc1
86 | 158 to 159 | COc1cc2c(c3c1OC(C)(C)C3)C(c1ccc(=O)n(C)c1)=NC(C)(C)C2
87 | 101 to 104 | Clc1ccc2nccc(Cl)c2c1
88 | 178 to 179 | Cc1nc(NC(=O)c2cccc(Cl)c2)sc1C(=O)NCc1ccccc1
89 | 147 to 152 | CC(C)(C)C(=O)Nc1nc(CC(=O)Nc2cccc(C(F)(F)F)c2)cs1
90 | 139 to 140 | CCOc1cc(-c2ncc3[nH]c4ccc(OCc5ccccc5)cc4c3c2COC)no1
91 | 242 | CC(C)(CCc1cc2cc(Cl)ccc2n1S(=O)(=O)c1ccccc1)C(=O)O
92 | 71 to 72 | CCC(C)CC(=O)OC1COC(OC(=O)CC(C)CC)CO1 (configuration not stated)
93 | 188 | CC(C)Cc1ccc2c(c1O)C(=O)c1ccc(CC(C)C)c(O)c1C2=O
94 | 160 | CC(O)C1CCC2C3CC=C4CC(N)CCC4(C)C3CCC12C (configuration not stated)
95 | > 230 | O=C(Nc1cccc(Cl)c1)c1ccccc1CN1C(=O)C2(COc3cc4c(cc32)CCO4)c2ccccc21 (configuration not stated)
96 | 82 to 84 | Cc1cc(CCCCCOc2ccc(C3NCCS3)cc2)on1 (configuration not stated)
97 | 128 to 130 | C/C=C(\c1ccccc1)c1cc2cc(OC)ccc2[nH]1
98 | 144 to 146 | Cc1[nH]c2ccccc2c1CCCN1CCC(c2noc3ccc(F)cc23)CC1
99 | 206 to 212 | CNC1CN(c2nc3c(cc2F)c(=O)c(C(=O)O)cn3C2CC2)C1

Row | Structure (SMILES) | melting point [°C]
100 | Cc1cc(NC(=O)C(C)(O)COc2cc(Cl)cc(Cl)c2)ccc1[N+](=O)[O-] (configuration not stated) | 141 to 143
101 | Cc1nc(C=O)cn1Cc1ccccc1 | 57 to 60
102 | O=C(O)Cc1ccc(CCl)cc1 | 147 to 149

Source: a melting point compilation (Tetko et al.; mined from patent text by program, amines drawn as free bases though some values may be those of a salt)
